Key:
RiPgm = biological target: T1, RiPgm (Roseburia intestinalis, UniProt C7G6G9); assay: HPAEC-PAD of M6P formed; format: biochemical; conditions: 10 mM sodium phosphate pH 5.8, 1 mM MgCl2, 37 °C
T1 construct: gene pgcA_1; recombinant from E. coli, untagged (stop codon before His-tag), HIC purified; encoded in MULL (ROSINTL182_05469-83), own locus tag not in text
T1 sequence (C7G6G9 1-572): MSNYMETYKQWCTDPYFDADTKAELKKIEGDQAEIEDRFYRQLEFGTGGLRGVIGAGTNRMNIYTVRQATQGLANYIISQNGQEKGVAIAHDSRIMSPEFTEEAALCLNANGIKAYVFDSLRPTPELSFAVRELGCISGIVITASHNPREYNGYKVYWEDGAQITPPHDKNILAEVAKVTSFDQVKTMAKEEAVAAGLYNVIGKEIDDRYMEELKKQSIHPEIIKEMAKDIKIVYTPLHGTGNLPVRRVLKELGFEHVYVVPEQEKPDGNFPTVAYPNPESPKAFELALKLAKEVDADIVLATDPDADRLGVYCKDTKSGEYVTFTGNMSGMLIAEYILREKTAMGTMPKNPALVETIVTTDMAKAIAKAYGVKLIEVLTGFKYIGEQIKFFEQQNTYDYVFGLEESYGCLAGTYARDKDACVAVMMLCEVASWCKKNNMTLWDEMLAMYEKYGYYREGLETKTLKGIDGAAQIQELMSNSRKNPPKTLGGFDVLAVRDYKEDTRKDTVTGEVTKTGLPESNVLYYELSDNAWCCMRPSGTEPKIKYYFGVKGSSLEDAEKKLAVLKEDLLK

RiMep = biological target: T2, RiMep (Roseburia intestinalis, UniProt C7G6G3); assay: HPAEC-PAD of epimerization products; format: biochemical; conditions: 10 mM sodium phosphate pH 5.8, 37 °C
T2 construct: gene ce-ne1; recombinant from E. coli, untagged (stop codon before His-tag), HIC purified
T2 sequence (C7G6G3 1-409): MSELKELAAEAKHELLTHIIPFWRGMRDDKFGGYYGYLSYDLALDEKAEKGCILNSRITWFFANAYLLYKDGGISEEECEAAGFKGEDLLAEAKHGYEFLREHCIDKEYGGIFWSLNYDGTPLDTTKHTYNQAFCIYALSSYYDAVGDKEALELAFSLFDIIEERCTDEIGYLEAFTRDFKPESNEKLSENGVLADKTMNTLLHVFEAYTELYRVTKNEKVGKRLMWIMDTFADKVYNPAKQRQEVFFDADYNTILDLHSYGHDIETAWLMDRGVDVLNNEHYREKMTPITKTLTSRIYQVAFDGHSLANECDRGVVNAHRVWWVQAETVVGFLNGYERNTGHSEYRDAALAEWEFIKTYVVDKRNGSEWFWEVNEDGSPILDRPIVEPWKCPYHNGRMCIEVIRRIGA

RiGH113 = biological target: T3, RiGH113 (Roseburia intestinalis, UniProt C7G6H0); assay: HPAEC-PAD of mannose released; format: biochemical; conditions: 10 mM sodium phosphate pH 5.8, 37 °C, overnight
T3 construct: gene RIL182_01090; recombinant from E. coli, untagged (stop codon before His-tag), HIC purified
T3 sequence (C7G6H0 1-311): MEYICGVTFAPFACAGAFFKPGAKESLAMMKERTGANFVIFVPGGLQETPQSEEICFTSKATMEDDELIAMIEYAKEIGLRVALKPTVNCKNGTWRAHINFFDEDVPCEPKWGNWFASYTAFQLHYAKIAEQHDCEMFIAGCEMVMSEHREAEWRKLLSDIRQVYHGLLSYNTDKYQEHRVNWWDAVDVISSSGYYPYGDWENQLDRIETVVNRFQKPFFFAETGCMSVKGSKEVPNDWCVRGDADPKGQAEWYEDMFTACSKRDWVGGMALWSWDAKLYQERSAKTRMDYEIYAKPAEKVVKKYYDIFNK

RiMnBP = biological target: T4, RiMnBP (Roseburia intestinalis, UniProt C7G6G6); assay: ITC; format: binding; conditions: 25 °C, 10 mM sodium phosphate pH 6.5
T4 construct: gene msmE; mature form, cloned in pETM-11, expressed in E. coli
T4 sequence (C7G6G6 23-489): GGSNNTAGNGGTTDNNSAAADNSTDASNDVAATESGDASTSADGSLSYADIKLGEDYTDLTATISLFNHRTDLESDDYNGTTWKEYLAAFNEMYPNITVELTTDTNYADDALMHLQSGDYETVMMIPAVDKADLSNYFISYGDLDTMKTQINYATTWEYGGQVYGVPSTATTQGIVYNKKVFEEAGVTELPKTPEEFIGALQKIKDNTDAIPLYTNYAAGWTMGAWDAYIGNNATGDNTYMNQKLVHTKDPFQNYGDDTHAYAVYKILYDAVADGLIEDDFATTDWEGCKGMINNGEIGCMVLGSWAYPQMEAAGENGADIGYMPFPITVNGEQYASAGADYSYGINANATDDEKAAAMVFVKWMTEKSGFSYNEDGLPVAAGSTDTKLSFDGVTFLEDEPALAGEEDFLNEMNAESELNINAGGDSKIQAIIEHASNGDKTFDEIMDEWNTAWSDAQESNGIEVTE

RiCBM27 = biological target: T5, RiCBM27 (Roseburia intestinalis, UniProt Z9TV37KX76); assay: SPR (Biacore T100, CBM immobilized on NTA chip); format: binding; conditions: 25 °C, 20 mM phosphate/citrate pH 6.5, 150 mM NaCl
T5 construct: expressed in Escherichia coli, immobilized on NTA chip (His6-tag)
T5 sequence (Z9TV37KX76 38-185 limits assumed): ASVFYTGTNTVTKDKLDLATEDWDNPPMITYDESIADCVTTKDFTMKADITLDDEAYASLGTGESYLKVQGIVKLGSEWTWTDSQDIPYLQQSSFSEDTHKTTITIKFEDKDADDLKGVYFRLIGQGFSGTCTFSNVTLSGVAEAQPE
Source text: SPR (Biacore T100, CBM immobilized on NTA chip) on RiCBM27

[1] = biological target: T6, RiCBM23 (Roseburia intestinalis); assay: SPR (Biacore T100, CBM immobilized on NTA chip); format: binding; conditions: 25 °C, 20 mM phosphate/citrate pH 6.5, 150 mM NaCl
T6 construct: expressed in Escherichia coli, immobilized on NTA chip (His6-tag)
Source text: SPR (Biacore T100, CBM immobilized on NTA chip) on RiCBM23

RiGH130_2 = biological target: T7, RiGH130_2 (Roseburia intestinalis, UniProt C7G6G1); assay: HPAEC-PAD of phosphorolysis products; format: biochemical; conditions: 100 mM sodium phosphate pH 5.8, 37 °C
T7 construct: gene RIL182_01100; recombinant from E. coli, C-terminal His6-tag
T7 sequence (C7G6G1 entry or part of it): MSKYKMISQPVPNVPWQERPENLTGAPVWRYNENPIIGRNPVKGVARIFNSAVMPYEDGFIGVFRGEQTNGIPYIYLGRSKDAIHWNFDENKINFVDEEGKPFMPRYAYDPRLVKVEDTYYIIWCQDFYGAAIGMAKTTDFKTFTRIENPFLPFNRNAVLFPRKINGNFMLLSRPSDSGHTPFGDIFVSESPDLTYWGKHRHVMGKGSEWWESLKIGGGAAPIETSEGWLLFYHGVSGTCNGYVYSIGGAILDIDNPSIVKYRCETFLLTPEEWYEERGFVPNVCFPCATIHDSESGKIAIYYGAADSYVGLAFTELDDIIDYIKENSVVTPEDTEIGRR

Compound | Kd (RiMnBP) [µM] | Kd (RiCBM27) [µM] | Kd [1] [µM] | also measured
O=P(O)(O)O[C@H]1O[C@H](CO)[C@@H](O)[C@H](O)[C@@H]1O [M1P, mannose-1-phosphate] | – | – | – | HPAEC-PAD of M6P formed (RiPgm): RiPgm catalyzes the interconversion of M1P and mannose 6-phosphate (M6P)
OC[C@H]1O[C@@H](O[C@H]2[C@H](O)[C@H](O)C(O)O[C@@H]2CO)[C@@H](O)[C@@H](O)[C@@H]1O (stereo partly drawn) [M2, mannobiose] | – | – | – | HPAEC-PAD of epimerization products (RiMep): RiMep was active on M2 and cellobiose (G2), releasing M1G1 and G1M1, respectively; HPAEC-PAD of mannose released (RiGH113): After overnight incubation with RiGH113, M2 was partially degraded to mannose
OC[C@H]1O[C@@H](O[C@H]2[C@H](O)[C@H](O)[C@H](O[C@H]3[C@H](O)[C@H](O)C(O)O[C@@H]3CO)O[C@@H]2CO)[C@@H](O)[C@@H](O)[C@@H]1O (stereo partly drawn) [M3, mannotriose] | 2.62 | 1590 ± 30 | 230 ± 20 | –
OC[C@H]1O[C@@H](O[C@H]2[C@H](O)[C@H](O)[C@H](O[C@H]3[C@H](O)[C@H](O)[C@H](O[C@H]4[C@H](O)[C@H](O)C(O)O[C@@H]4CO)O[C@@H]3CO)O[C@@H]2CO)[C@@H](O)[C@@H](O)[C@@H]1O (stereo partly drawn) [M4, mannotetraose] | 3.89 | 658 ± 20 | 130 ± 50 | HPAEC-PAD of phosphorolysis products (RiGH130_2): phosphorolyzed M4 into M3, M2 and mannose-1-phosphate (M1P)
OC[C@H]1O[C@@H](O[C@H]2[C@H](O)[C@H](O)[C@H](O[C@H]3[C@H](O)[C@H](O)[C@H](O[C@H]4[C@H](O)[C@H](O)[C@H](O[C@H]5[C@H](O)[C@H](O)C(O)O[C@@H]5CO)O[C@@H]4CO)O[C@@H]3CO)O[C@@H]2CO)[C@@H](O)[C@@H](O)[C@@H]1O (stereo partly drawn) [M5, mannopentaose] | 2.55 | 321 ± 20 | 198 ± 70 | –
OC[C@H]1O[C@@H](O[C@H]2[C@H](O)[C@H](O)[C@H](O[C@H]3[C@H](O)[C@H](O)[C@H](O[C@H]4[C@H](O)[C@H](O)[C@H](O[C@H]5[C@H](O)[C@H](O)[C@H](O[C@H]6[C@H](O)[C@H](O)C(O)O[C@@H]6CO)O[C@@H]5CO)O[C@@H]4CO)O[C@@H]3CO)O[C@@H]2CO)[C@@H](O)[C@@H](O)[C@@H]1O (stereo partly drawn) [M6, mannohexaose] | 33.8 | 165 ± 10 | 205 ± 40 | –
diacetylated mannopentaose [M5Ac2] | 23.5 | – | – | –
diacetylated mannotetraose [M4Ac2] | 25.7 | – | – | –

Reference: publication PMC6385246, “The human gut Firmicute Roseburia intestinalis is a primary degrader of dietary β-mannans” (Nature Communications, 2019)
